Results on 13 compounds are retold here after patent US10988455B2, “1,2,4-triazine-4-amine derivatives” (Heptares Therapeutics Limited, priority 2010, dated 2021).

Sequence of human adenosine A1 receptor (P30542 whole entry): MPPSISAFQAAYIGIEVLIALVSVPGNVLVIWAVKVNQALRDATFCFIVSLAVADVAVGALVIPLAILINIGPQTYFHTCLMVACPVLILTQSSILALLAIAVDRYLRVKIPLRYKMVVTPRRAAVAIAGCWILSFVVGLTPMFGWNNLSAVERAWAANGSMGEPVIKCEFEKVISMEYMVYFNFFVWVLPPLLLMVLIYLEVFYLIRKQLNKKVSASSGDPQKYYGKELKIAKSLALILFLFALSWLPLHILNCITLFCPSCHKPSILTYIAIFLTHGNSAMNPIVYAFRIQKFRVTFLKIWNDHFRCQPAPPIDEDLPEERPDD

The target of one assay is human adenosine A2a receptor (Homo sapiens (Human), UniProt P29274). Kind of assay: HEK293-hA2a [3H]-ZM241385 binding assay (Test A). Conditions: HEK293 membranes, 1 nM [3H]ZM241385, 25° C., 1 h. Here is the method: (§1) All test compounds were prepared as a stock solution of 10 mM in 100% DMSO.
Sequence of human adenosine A2a receptor (P29274 whole entry): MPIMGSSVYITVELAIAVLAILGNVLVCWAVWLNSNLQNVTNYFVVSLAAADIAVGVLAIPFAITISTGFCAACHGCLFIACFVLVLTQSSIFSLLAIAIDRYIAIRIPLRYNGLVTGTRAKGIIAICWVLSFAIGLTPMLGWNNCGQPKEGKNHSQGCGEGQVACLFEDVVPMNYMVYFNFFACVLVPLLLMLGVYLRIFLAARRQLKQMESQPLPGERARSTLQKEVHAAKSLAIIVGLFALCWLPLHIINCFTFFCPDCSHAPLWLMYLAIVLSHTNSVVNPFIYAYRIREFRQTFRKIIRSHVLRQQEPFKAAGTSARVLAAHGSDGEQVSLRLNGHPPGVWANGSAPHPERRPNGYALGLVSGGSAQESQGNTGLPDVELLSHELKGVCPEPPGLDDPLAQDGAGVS
Regarding `Cc1cc(Cl)cc(-c2nnc(N)nc2-c2ccccc2)c1` [1(li)], the “pKi A2a” value is 8.66.
Take `Cc1cc(-c2nnc(N)nc2-c2ccc(Cl)cc2)cc(C)n1` [1(clix)]: the “pKi A2a” value is on record as 7.81.
As for `Nc1nnc(-c2ccnc(Cl)c2)c(-c2ccccc2)n1` [1(xliii)], the “pKi A2a” value is on record as 7.74.
Same read-out and setting: then `Nc1nnc(-c2cc(Cl)nc(C(F)(F)F)c2)c(-c2ccc(F)cc2)n1` [1(clxix)], with 8.40; and `Cc1cc(-c2nnc(N)nc2-c2ccccc2)cc(N2CCC2)n1` [5(x), 6-[2-(Azetidin-1-yl)-6-methylpyridin-4-yl]-5-phenyl-1,2,4-triazin-3-amine], with 8.52; and `Cc1cc(-c2nnc(N)nc2-c2ccccc2)cc(C(F)F)n1` [1(clxxix)], with 8.62.
Still for that read-out and setting: for `Cc1cc(-c2nnc(N)nc2-c2ccccc2)cc(Cl)n1` [1(lvi)] the value was 8.22; for `Cc1cc(-c2nnc(N)nc2-c2cccc(F)c2)cc(Cl)n1` [1(xc)], 8.07; for `Cc1cc(-c2nnc(N)nc2-c2ccccc2)cc(Br)n1` [1(ccxii)], 8.66.
For the compound `Cc1cc(-c2nnc(N)nc2-c2ccccc2F)cc(C(F)(F)F)n1` [1(cxci)], the “pKi A2a” value stood at 8.26.

Another assay deals with haloperidol-induced catalepsy in rats. Briefly: Catalepsy reversal test (Test B). Conditions: dose of 1 mg/kg p.o., 120 min pre-test time. The format is in vivo, Sprague-Dawley rats. How it is done:
The dopamine D2 receptor antagonist, haloperidol, induces Parkinsonism in humans and induces motor effects in rats such as catalepsy. There is considerable evidence that adenosine A2A receptor antagonists reverse haloperidol-induced motor effects in preclinical studies. […] The present study determines the ability of haloperidol-induced catalepsy in rats to be reversed by novel A2A receptor antagonists.
Haloperidol (0.82 mg/kg, i.p.; 150 min pre-test time) induces significant cataleptic behaviour in rats (average score 3.1). The effect of selected compounds of the invention (2-10 mg/kg or 0.3-3 mg/kg, p.o.; 120 min pre-test time) on catalepsy was established by administration of said compounds to rats pre-treated with haloperidol as described above.
Details of a similar test may be found in, for example, Hodgson et al., J. Pharmacol. Exp. Ther. 330, 2009.
Turning to `Cc1cc(-c2nnc(N)nc2-c2ccc(F)cc2)cc(C(F)(F)F)n1` [1(cxciii)], the “reversal of cataleptic behavior in rats pre-treated with haloperidol” value (“reversal of cataleptic behavior” below) is “statistically significant”.
The same measure, in the same setting: for `Cc1cc(-c2nnc(N)nc2-c2ccccc2)cc(C(F)(F)F)n1` [Example 1(ccix), 6-[2-methyl-6-(trifluoromethyl)pyridin-4-yl]-5-phenyl-1,2,4-triazin-3-amine] the value was “statistically significant”; for `Cc1cc(Cl)cc(-c2nnc(N)nc2-c2ccccc2)c1` [1(li)], “statistically significant”; for `Cc1cc(-c2nnc(N)nc2-c2ccc(Cl)cc2)cc(C)n1` [1(clix)], “statistically significant”.
On the same count and under the same terms, then `Nc1nnc(-c2cc(Cl)nc(C(F)(F)F)c2)c(-c2ccc(F)cc2)n1` [1(clxix)], with “statistically significant”; and `Cc1cc(-c2nnc(N)nc2-c2ccccc2)cc(N2CCC2)n1` [5(x), 6-[2-(Azetidin-1-yl)-6-methylpyridin-4-yl]-5-phenyl-1,2,4-triazin-3-amine], with “statistically significant”; and `Cc1cc(-c2nnc(N)nc2-c2ccccc2)cc(C(F)F)n1` [1(clxxix)], with “statistically significant”.
As for `Cc1cc(-c2nnc(N)nc2-c2ccccc2)cc(Cl)n1` [1(lvi)], the “reversal of cataleptic behavior” value is recorded as “statistically significant”.
Turning to `Cc1cc(-c2nnc(N)nc2-c2cc(F)cc(F)c2)cc(C)n1` [1(cliv)], the “reversal of cataleptic behavior” value was “statistically significant”.
As to `Cc1cc(-c2nnc(N)nc2-c2cccc(F)c2)cc(Cl)n1` [1(xc)], the “reversal of cataleptic behavior” value is reported as “statistically significant”.
For the compound `Cc1cc(-c2nnc(N)nc2-c2ccccc2)cc(Br)n1` [1(ccxii)], the “reversal of cataleptic behavior” value was “statistically significant”.
As to `Cc1cc(-c2nnc(N)nc2-c2ccccc2F)cc(C(F)(F)F)n1` [1(cxci)], the “reversal of cataleptic behavior” value is recorded as “statistically significant”.

The same assay, now with this note: p.o., 120 min pre-test time, haloperidol 0.82 mg/kg i.p.
As for `Nc1nnc(-c2ccnc(Cl)c2)c(-c2ccccc2)n1` [1(xliii)], the “ED50, reversal of cataleptic behaviour in rats pre-treated with haloperidol” value turned out to be 0.27 mg/kg.

A further assay concerns the target human adenosine A1 receptor (Homo sapiens (Human), UniProt P30542). Briefly: CHO-hA1 [3H]DPCPX binding assay (Test A). Conditions: CHO membranes, 1 nM [3H]DPCPX, 25° C., 1 h. Here is the method:
as §1
As to `Cc1cc(-c2nnc(N)nc2-c2ccc(F)cc2)cc(C(F)(F)F)n1` [1(cxciii)], the “pKi A1” value is listed as 6.93.
Same read-out and setting: then `Cc1cc(-c2nnc(N)nc2-c2ccccc2)cc(C(F)(F)F)n1` [Example 1(ccix), 6-[2-methyl-6-(trifluoromethyl)pyridin-4-yl]-5-phenyl-1,2,4-triazin-3-amine], with 7.60.
The same measure, in the same setting: then `Cc1cc(Cl)cc(-c2nnc(N)nc2-c2ccccc2)c1` [1(li)], with 6.87; and `Cc1cc(-c2nnc(N)nc2-c2ccc(Cl)cc2)cc(C)n1` [1(clix)], with 7.07.
`Nc1nnc(-c2ccnc(Cl)c2)c(-c2ccccc2)n1` [1(xliii)]: the “pKi A1” value came out at 8.54.
On to `Nc1nnc(-c2cc(Cl)nc(C(F)(F)F)c2)c(-c2ccc(F)cc2)n1` [1(clxix)], for which the “pKi A1” value amounted to 6.99.
As to `Cc1cc(-c2nnc(N)nc2-c2ccccc2)cc(N2CCC2)n1` [5(x), 6-[2-(Azetidin-1-yl)-6-methylpyridin-4-yl]-5-phenyl-1,2,4-triazin-3-amine], the “pKi A1” value was determined as 8.05.
On the same count and under the same terms, for `Cc1cc(-c2nnc(N)nc2-c2ccccc2)cc(C(F)F)n1` [1(clxxix)] the value was 7.52; for `Cc1cc(-c2nnc(N)nc2-c2ccccc2)cc(Cl)n1` [1(lvi)], 7.33.
Same read-out and setting: for `Cc1cc(-c2nnc(N)nc2-c2cc(F)cc(F)c2)cc(C)n1` [1(cliv)] the value was 6.77; for `Cc1cc(-c2nnc(N)nc2-c2cccc(F)c2)cc(Cl)n1` [1(xc)], 7.26; for `Cc1cc(-c2nnc(N)nc2-c2ccccc2)cc(Br)n1` [1(ccxii)], 7.68.
Take `Cc1cc(-c2nnc(N)nc2-c2ccccc2F)cc(C(F)(F)F)n1` [1(cxci)]: the “pKi A1” value is 7.36.
